Experimental data as given in ChEMBL document CHEMBL3997764 (Medchemcomm, 2016).
pEC50, pIC50: −log10 of the molar value. Values after ≈ are worked out from the molar mass of the structure shown. One block for each compound: values may come before it.

How the values were obtained:
[1] = target: T1, Nuclear receptor subfamily 1 group I member 2 (Homo sapiens, UniProt O75469); test: Activation of PXR in human LS180 cells assessed as P-gp induction by measuring intracellular accumulation of rhodamine 123 per ug of total protein at 5 uM preincubated for 48 hrs followed by rhodamine 123 addition after 40 mins and measured after 90 mins by fluorescence assay relative to control; format: cell-based; details: 1.5 h
T1 sequence (O75469 whole entry): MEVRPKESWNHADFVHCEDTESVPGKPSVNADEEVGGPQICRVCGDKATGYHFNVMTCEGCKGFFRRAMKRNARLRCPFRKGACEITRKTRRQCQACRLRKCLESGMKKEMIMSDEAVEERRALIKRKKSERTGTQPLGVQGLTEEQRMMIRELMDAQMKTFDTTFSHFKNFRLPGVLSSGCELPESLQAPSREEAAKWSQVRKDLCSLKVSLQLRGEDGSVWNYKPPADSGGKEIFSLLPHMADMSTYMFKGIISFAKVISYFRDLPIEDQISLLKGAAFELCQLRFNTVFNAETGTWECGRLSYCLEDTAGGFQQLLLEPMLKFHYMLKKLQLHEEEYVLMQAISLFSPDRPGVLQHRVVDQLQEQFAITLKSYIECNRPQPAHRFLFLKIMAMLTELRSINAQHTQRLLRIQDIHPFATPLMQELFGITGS

[2] = Cytotoxicity against human LS180 cells assessed as cell viability at 30 uM after 24 hrs by MTT assay relative to control; format: cell-based; details: read-out: Activity
LS180 = test: Cytotoxicity against human LS180 cells assessed as reduction in cell viability after 24 hrs by MTT assay; format: cell-based; details: LS180, 24 h
[3] = target: T2, P-gp (expression induced through PXR) (Homo sapiens, UniProt O75469); test: Activation of PXR in human LS180 cells assessed as induction of P-gp expression at 5 uM by Western blot method relative to control; format: cell-based; details: read-out: FC
T2 sequence (O75469 whole entry): T1 sequence (O75469 whole entry)

[4] = target: T1, Nuclear receptor subfamily 1 group I member 2; test: Activation of PXR in human LS180 cells assessed as P-gp induction by measuring intracellular accumulation of rhodamine 123 preincubated for 48 hrs followed by rhodamine 123 addition after 40 mins and measured after 90 mins by fluorescence assay; format: cell-based
[5] = Thermodynamic aqueous solubility of the compound in water after overnight incubation; format: physicochemical; details: read-out: Therm_solubility
[6] = Thermodynamic aqueous solubility of the compound in phosphate buffered saline at pH 7.4 after overnight incubation; format: physicochemical; details: read-out: Therm_solubility
[7] = Thermodynamic aqueous solubility of the compound in simulated gastric fluid at pH 1.2 after overnight incubation; format: physicochemical; details: read-out: Therm_solubility
[8] = Thermodynamic aqueous solubility of the compound in simulated intestinal fluid at pH 6.8 after overnight incubation; format: physicochemical; details: read-out: Therm_solubility
CYP3A4 = CYP3A4 (Homo sapiens, UniProt P08684); test: Inhibition of human recombinant CYP3A4 at 10 uM by fluorescence analysis relative to control; format: ADME
Chain of CYP3A4 (P08684 whole entry): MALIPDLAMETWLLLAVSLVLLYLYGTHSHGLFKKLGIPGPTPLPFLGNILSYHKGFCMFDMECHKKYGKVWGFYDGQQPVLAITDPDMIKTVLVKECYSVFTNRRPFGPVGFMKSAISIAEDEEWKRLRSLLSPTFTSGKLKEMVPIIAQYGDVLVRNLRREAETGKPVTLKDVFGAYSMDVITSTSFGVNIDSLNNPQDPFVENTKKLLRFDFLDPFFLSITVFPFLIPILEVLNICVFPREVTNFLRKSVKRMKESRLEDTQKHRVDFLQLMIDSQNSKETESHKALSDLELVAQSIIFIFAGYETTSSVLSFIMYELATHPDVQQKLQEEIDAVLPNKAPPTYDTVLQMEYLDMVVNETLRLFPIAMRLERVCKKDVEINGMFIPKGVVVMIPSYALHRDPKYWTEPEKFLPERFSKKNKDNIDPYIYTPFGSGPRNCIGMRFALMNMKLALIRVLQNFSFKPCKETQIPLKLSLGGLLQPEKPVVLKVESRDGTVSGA

CYP2D6 = CYP2D6 (Homo sapiens, UniProt P10635); test: Inhibition of human recombinant CYP2D6 at 10 uM by fluorescence analysis relative to control; format: ADME
Chain of CYP2D6 (P10635 whole entry): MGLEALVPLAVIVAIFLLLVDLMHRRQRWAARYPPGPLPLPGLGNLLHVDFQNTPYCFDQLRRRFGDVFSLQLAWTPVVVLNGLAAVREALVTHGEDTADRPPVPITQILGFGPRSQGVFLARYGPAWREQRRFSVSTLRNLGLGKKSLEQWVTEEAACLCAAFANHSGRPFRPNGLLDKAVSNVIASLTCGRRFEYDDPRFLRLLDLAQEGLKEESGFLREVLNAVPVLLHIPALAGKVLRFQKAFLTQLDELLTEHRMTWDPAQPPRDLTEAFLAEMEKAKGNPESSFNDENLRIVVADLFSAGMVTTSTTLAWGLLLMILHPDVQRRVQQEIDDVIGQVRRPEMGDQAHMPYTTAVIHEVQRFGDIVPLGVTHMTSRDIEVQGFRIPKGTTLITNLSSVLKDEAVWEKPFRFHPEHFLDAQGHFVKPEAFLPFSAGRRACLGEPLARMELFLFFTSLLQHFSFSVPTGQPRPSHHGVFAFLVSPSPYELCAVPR

CYP2C9 = CYP2C9 (Homo sapiens, UniProt P11712); test: Inhibition of human recombinant CYP2C9 at 10 uM by fluorescence analysis relative to control; format: ADME
Chain of CYP2C9 (P11712 whole entry): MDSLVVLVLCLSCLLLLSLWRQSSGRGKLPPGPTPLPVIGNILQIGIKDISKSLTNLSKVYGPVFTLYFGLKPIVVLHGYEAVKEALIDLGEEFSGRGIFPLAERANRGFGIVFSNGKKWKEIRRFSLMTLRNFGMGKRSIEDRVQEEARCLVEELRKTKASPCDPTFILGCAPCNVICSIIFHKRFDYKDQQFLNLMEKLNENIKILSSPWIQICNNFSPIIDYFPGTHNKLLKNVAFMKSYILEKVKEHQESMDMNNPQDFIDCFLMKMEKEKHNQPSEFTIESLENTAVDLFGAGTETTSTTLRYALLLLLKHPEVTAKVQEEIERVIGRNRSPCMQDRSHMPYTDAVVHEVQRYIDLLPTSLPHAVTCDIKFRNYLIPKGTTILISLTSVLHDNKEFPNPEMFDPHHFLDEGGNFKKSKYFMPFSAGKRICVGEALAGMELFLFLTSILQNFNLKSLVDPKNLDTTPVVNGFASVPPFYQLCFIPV

CYP2C19 = CYP2C19 (Homo sapiens, UniProt P33261); test: Inhibition of human recombinant CYP2C19 at 10 uM by fluorescence analysis relative to control; format: ADME
Chain of CYP2C19 (P33261 whole entry): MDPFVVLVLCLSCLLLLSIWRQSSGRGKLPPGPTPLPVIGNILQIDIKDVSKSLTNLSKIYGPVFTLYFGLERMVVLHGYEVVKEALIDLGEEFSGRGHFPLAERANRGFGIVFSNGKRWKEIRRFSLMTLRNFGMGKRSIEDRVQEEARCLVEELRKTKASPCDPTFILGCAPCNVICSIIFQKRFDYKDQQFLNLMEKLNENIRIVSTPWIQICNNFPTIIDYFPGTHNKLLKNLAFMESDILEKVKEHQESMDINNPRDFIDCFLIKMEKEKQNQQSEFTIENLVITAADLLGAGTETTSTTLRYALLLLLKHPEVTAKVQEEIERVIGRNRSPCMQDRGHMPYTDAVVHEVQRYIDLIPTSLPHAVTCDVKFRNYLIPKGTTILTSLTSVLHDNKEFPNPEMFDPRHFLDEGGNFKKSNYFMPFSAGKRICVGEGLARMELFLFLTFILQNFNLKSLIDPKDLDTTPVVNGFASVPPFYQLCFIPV

[9] = Efflux ratio of permeability in human Caco2 cells after 90 mins by LC-MS/MS analysis; format: ADME, cell-based; details: Caco-2
[10] = Terminal half life in BALB/c mouse plasma at 1 mg/kg, iv by LC-MS/MS analysis; format: ADME, organism-based; details: read-out: beta t1/2 (converted)
[11] = AUC (0 to t) in BALB/c mouse plasma at 1 mg/kg, iv up to 24 hrs by LC-MS/MS analysis; format: ADME, organism-based; parameters: dose 1 mg/kg, time < 24 hr, route intravenous
[12] = AUC (0 to infinity) in BALB/c mouse plasma at 1 mg/kg, iv up to 24 hrs by LC-MS/MS analysis; format: ADME, organism-based; parameters: dose 1 mg/kg, route intravenous, time infinity
[13] = Cmax in BALB/c mouse plasma at 1 mg/kg, iv up to 24 hrs by LC-MS/MS analysis; format: ADME, organism-based; parameters: dose 1 mg/kg, route intravenous
[14] = Clearance in BALB/c mouse plasma at 1 mg/kg, iv up to 24 hrs by LC-MS/MS analysis; format: ADME, organism-based
[15] = Initial plasma concentration in BALB/c mouse at 1 mg/kg, iv up to 24 hrs by LC-MS/MS analysis; format: ADME, organism-based
[16] = Volume of distribution in BALB/c mouse at 1 mg/kg, iv up to 24 hrs by LC-MS/MS analysis; format: ADME, organism-based; details: in vivo
[17] = Volume of distribution at steady state in BALB/c mouse at 1 mg/kg, iv up to 24 hrs by LC-MS/MS analysis; format: ADME, organism-based; details: in vivo, read-out: Vdss
Mus musculus = test: Tlast in BALB/c mouse at 1 mg/kg, iv up to 24 hrs by LC-MS/MS analysis; format: ADME, organism-based; details: in vivo
[18] = Terminal half life in BALB/c mouse plasma at 10 mg/kg, po by LC-MS/MS analysis; format: ADME, organism-based; details: read-out: beta t1/2 (converted)
[19] = AUC (0 to t) in BALB/c mouse plasma at 10 mg/kg, po up to 24 hrs by LC-MS/MS analysis; format: ADME, organism-based; parameters: dose 10 mg/kg, time < 24 hr, route oral
[20] = AUC (0 to infinity) in BALB/c mouse plasma at 10 mg/kg, po up to 24 hrs by LC-MS/MS analysis; format: ADME, organism-based; parameters: dose 10 mg/kg, time infinity, route oral
[21] = Cmax in BALB/c mouse plasma at 10 mg/kg, po up to 24 hrs by LC-MS/MS analysis; format: ADME, organism-based; parameters: dose 10 mg/kg, route oral
[22] = Tmax in BALB/c mouse plasma at 10 mg/kg, po up to 24 hrs by LC-MS/MS analysis; format: ADME, organism-based
[23] = Oral bioavailability in BALB/c mouse plasma at 10 mg/kg up to 24 hrs by LC-MS/MS analysis; format: ADME, organism-based

Structure (SMILES): CC(C)OP(=O)(OC(C)C)C(=Cc1cc(C(C)(C)C)c(O)c(C(C)(C)C)c1)P(=O)(OC(C)C)OC(C)C
Activity [1]: 66.93% | viability at 24 h, 30 µM [2]: 100% | pIC50 (LS180): < 4.52

Structure (SMILES): CCOP(=O)(/C=C/c1cc(F)cc(F)c1)OCC
Activity [1]: 91.31% | viability at 24 h, 30 µM [2]: 100% | pIC50 (LS180): < 4.52

Structure (SMILES): CCOP(=O)(C#Cc1ccccc1)OCC
Activity [1]: 77.64% | viability at 24 h, 30 µM [2]: 100% | pIC50 (LS180): < 4.52

Structure (SMILES): CCOP(=O)(C#Cc1cccc(C(F)(F)F)c1)OCC
Activity [1]: 75.16% | viability at 24 h, 30 µM [2]: 100% | pIC50 (LS180): < 4.52

Structure (SMILES): CC(C)OP(=O)(OC(C)C)C(=Cc1ccc([N+](=O)[O-])o1)P(=O)(OC(C)C)OC(C)C
Activity [1]: 67.84% | viability at 24 h, 30 µM [2]: 41%

Structure (SMILES): CCOP(=O)(/C=C/c1ccc(F)c(Br)c1)OCC
Activity [1]: 97.7% | viability at 24 h, 30 µM [2]: 100% | pIC50 (LS180): < 4.52

Structure (SMILES): CC(C)OP(=O)(OC(C)C)C(=Cc1ccc2c(c1)OCO2)P(=O)(OC(C)C)OC(C)C
Activity [1]: 83.27% | viability at 24 h, 30 µM [2]: 100% | pIC50 (LS180): < 4.52

More lines, main results first:

Activity [1]: 70%
Structure (SMILES): COc1cc(C=C(P(=O)(OC(C)C)OC(C)C)P(=O)(OC(C)C)OC(C)C)ccc1F
viability at 24 h, 30 µM [2]: 86% | pIC50 (LS180): < 4.52

Activity [1]: 65.32%
Structure (SMILES): CC(C)OP(=O)(OC(C)C)C(=Cc1ccc(N(C)C)cc1)P(=O)(OC(C)C)OC(C)C
viability at 24 h, 30 µM [2]: 100% | pIC50 (LS180): < 4.52

Activity [1]: 70.48%
Structure (SMILES): CC(C)OP(=O)(OC(C)C)C(=Cc1cccc2ncccc12)P(=O)(OC(C)C)OC(C)C
viability at 24 h, 30 µM [2]: 100% | pIC50 (LS180): < 4.52

Activity [1]: 65.69%
Structure (SMILES): CCOP(=O)(OCC)C(=Cc1ccccc1[N+](=O)[O-])P(=O)(OCC)OCC
viability at 24 h, 30 µM [2]: 100% | pIC50 (LS180): < 4.52

Activity [1]: 88.3%
Structure (SMILES): CCOP(=O)(OCC)C(=Cc1ccc([N+](=O)[O-])o1)P(=O)(OCC)OCC
viability at 24 h, 30 µM [2]: 92% | pIC50 (LS180): < 4.52

Activity [1]: 90.85%
Structure (SMILES): CCOP(=O)(OCC)C(Nc1ccccc1)c1ccc(Cl)cc1 (configuration not stated)
viability at 24 h, 30 µM [2]: 100% | pIC50 (LS180): < 4.52

Activity [1]: 58.09% | fold induction at 5 µM [3]: 7.2 | pEC50 [4]: 6.57 | solubility thermodynamic [5]: > 1500 µg/mL | solubility thermodynamic [6]: > 1500 µg/mL | solubility thermodynamic [7]: > 1500 µg/mL | solubility thermodynamic [8]: 40 µg/mL (≈ 0.106 mM) | inhibition at 10 µM (CYP3A4): 19% | inhibition at 10 µM (CYP2D6): 20% | inhibition at 10 µM (CYP2C9): 0% | inhibition at 10 µM (CYP2C19): 0% | efflux ratio at 1.5 h [9]: 0.9 | half-life [10]: 41.4 min | AUC(0-t) at 24 h [11]: 543 ng·h/mL | AUC(0-inf) [12]: 549 ng·h/mL | Cmax [13]: 811 ng/mL | clearance [14]: 30.4 mL/min/kg | C0 at 24 h [15]: 1150 ng/mL | Vd [16]: 1.81 L/kg | Vd [17]: 1.1 L/kg | Tlast (Mus musculus): 4 h | half-life [18]: 209 min | AUC(0-t) at 24 h [19]: 1970 ng·h/mL | AUC(0-inf) [20]: 2070 ng·h/mL | Cmax [21]: 870 ng/mL | Tmax [22]: 30 min | bioavailability [23]: 37.6%
Structure (SMILES): CCOP(=O)(OCC)C(=Cc1ccccc1)P(=O)(OCC)OCC
viability at 24 h, 30 µM [2]: 100% | pIC50 (LS180): < 4.52
